Literature values in patent publication US10729778B2, “Carrier-linked treprostinil prodrugs” (Ascendis Pharma A/S, priority 2011, dated 2020).

Conditions: background statement

half-life: 4 h
Structure (SMILES): CCCCC[C@H](O)CC[C@@H]1[C@H]2Cc3cccc(OCC(=O)O)c3C[C@H]2C[C@H]1O [Treprostinil]
